Columns and labels:
[1] = target: T1, EP4 (Homo sapiens, UniProt P35408); experiment: EP4 binding (Ki)
From the text: (§1) U.S. patent application Ser. No. 11/553,143, filed on Oct. 26, 2006, incorporated by reference herein, describes the methods used to obtain the in vitro data in Table 1 below.

[2] = target: T2, EP2 (Homo sapiens, UniProt P43116); experiment: EP2 Ca2+ signal assay; type: cell-based
From the text: as §1

[3] = target: T2, EP2; experiment: EP2 cAMP assay; type: cell-based
From the text: as §1

[4] = target: T3, EP3 (Homo sapiens, UniProt P43115); experiment: Other receptors Ca2+ assay, EP3; type: cell-based; conditions: EP3 receptor
T3 sequence (P43115 1-390): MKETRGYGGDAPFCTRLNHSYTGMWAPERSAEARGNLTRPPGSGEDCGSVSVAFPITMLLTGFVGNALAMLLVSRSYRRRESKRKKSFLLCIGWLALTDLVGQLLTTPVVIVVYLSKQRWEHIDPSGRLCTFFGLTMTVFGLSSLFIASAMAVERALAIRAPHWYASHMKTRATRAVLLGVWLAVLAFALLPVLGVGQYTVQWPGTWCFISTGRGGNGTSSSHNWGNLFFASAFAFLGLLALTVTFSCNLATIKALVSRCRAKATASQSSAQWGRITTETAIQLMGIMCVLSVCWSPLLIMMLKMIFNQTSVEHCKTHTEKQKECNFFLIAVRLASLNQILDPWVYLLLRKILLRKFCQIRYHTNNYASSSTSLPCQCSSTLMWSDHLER
From the text: as §1

[5] = target: T2, EP2; experiment: EP2 binding (Ki)
From the text: as §1

[6] = target: T4, TP (Homo sapiens, UniProt P21731); experiment: Other receptors Ca2+ assay, TP; type: cell-based; conditions: TP receptor
T4 sequence (P21731 1-343): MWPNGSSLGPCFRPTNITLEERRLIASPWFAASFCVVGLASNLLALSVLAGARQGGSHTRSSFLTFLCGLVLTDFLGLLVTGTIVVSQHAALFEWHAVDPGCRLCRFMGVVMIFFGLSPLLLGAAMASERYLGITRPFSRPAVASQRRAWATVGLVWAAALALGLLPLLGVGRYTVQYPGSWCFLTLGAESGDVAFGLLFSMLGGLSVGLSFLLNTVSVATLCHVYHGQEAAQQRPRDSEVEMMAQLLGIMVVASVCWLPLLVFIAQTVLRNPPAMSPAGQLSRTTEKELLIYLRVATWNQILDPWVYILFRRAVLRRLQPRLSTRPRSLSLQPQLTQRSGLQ
From the text: as §1

[7] = target: FP (Homo sapiens, UniProt P43088); experiment: Other receptors Ca2+ assay, FP; type: cell-based; conditions: FP receptor
Chain of FP (P43088 whole entry): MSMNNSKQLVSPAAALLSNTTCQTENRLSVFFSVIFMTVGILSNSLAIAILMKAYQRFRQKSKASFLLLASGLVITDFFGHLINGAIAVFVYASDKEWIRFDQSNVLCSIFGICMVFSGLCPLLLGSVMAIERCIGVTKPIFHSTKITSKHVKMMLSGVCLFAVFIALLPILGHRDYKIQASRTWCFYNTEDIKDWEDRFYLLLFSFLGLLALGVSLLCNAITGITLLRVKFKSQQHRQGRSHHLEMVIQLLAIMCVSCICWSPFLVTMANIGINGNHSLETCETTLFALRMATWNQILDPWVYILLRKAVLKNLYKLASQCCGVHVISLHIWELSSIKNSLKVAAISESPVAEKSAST
From the text: as §1

[8] = target: T5, DP (Homo sapiens, UniProt Q13258); experiment: Other receptors Ca2+ assay, DP; type: cell-based; conditions: DP receptor
T5 sequence (Q13258 1-359): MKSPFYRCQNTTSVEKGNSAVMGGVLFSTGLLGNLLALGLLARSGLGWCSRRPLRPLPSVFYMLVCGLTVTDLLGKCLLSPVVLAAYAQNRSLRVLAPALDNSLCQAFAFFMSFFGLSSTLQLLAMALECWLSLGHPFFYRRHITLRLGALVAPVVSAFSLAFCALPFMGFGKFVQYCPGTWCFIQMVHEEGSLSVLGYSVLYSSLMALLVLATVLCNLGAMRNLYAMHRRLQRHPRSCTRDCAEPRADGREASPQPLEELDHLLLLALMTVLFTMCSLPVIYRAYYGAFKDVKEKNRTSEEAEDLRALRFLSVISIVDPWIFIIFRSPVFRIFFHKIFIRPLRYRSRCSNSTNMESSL
From the text: as §1

[9] = target: T6, EP1 (Homo sapiens, UniProt P34995); experiment: Other receptors Ca2+ assay, EP1; type: cell-based; conditions: EP1 receptor
T6 sequence (P34995 1-402): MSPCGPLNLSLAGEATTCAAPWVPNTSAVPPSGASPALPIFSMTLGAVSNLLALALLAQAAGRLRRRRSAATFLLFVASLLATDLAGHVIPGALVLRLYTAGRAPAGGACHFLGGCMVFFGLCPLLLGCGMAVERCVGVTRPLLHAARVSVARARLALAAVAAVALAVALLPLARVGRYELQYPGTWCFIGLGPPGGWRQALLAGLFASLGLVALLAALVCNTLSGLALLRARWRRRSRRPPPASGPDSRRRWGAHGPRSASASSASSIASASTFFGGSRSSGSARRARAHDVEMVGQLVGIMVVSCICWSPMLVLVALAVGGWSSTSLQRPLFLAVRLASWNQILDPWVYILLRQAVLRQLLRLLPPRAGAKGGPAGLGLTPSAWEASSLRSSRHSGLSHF
From the text: as §1

[10] = target: IP (Homo sapiens, UniProt P43119); experiment: Other receptors Ca2+ assay, IP; type: cell-based; conditions: IP receptor
Chain of IP (P43119 whole entry): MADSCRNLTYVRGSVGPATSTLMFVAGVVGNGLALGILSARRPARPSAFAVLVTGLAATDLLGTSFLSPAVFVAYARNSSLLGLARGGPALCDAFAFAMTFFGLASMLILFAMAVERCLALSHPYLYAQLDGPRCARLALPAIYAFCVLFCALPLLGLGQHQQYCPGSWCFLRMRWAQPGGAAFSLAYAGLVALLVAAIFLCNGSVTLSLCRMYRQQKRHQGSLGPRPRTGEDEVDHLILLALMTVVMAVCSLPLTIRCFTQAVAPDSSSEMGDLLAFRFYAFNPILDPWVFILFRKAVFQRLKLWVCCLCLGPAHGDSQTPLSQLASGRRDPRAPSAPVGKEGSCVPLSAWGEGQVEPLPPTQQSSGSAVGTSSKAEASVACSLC
From the text: as §1

[11] = target: T1, EP4; experiment: EP4 Ca2+ signal assay; type: cell-based
From the text: as §1

[12] = tested on: DOG; experiment: Dog intraocular pressure test; type: in vivo
From the text: (§2) U.S. Pat. No. 7,091,231, incorporated by reference herein, describes the methods used to obtain the in vivo test results presented in Table 2.

[13] = tested on: MONKEY; experiment: Monkey intraocular pressure test; type: in vivo
From the text: as §2

[14] = tested on: DOG; experiment: Dog ocular hyperemia; type: in vivo
From the text: as §2

T1 sequence (P35408 whole entry): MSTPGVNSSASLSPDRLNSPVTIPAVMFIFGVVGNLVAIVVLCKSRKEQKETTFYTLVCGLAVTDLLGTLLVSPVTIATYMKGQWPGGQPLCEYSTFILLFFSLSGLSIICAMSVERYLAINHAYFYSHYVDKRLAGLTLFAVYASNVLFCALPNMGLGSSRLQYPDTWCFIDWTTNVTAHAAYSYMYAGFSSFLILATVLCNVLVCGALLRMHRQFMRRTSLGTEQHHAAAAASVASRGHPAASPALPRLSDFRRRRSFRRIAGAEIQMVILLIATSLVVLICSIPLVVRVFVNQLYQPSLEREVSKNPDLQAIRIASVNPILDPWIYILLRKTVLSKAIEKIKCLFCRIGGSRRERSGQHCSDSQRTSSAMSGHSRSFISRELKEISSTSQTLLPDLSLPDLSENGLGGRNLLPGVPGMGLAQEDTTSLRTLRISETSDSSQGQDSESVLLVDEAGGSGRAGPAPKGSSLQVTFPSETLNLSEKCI
T2 sequence (P43116 whole entry): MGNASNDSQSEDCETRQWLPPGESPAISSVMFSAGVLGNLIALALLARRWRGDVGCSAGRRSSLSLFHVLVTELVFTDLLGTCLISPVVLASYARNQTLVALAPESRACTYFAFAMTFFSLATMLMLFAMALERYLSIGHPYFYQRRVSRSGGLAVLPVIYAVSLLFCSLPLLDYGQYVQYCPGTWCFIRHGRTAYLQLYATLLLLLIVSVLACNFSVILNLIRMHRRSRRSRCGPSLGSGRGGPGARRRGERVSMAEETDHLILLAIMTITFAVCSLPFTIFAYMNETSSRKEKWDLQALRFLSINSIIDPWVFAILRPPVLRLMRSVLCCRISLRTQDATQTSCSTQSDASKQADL

| Ki [1] | EC50 [2] | EC50 [3] | EC50 [4] | Ki [5] | EC50 [6] | EC50 [7] | EC50 [8] | EC50 [9] | EC50 [10] | EC50 [11] | DOG Max. hyperemia ([14]; Conc. 0.01 g/100 mL) | DOG Max. hyperemia ([14]; Conc. .005% (g/100 mL)) | SMILES | DOG Max. ΔIOP ([12]; Conc. 0.01 g/100 mL) | MONKEY Max. ΔIOP ([13]; Conc. 0.01 g/100 mL) | DOG Max. ΔIOP ([12]; Conc. .005% (g/100 mL)) | MONKEY Max. ΔIOP ([13]; Conc. .005% (g/100 mL)) |
| --- | --- | --- | --- | --- | --- | --- | --- | --- | --- | --- | --- | --- | --- | --- | --- | --- | --- |
| 330 nM | 67 nM | 2 nM | 6660 nM | 3 nM | ≥ 10000 nM | ≥ 10000 nM | 2250 nM | 3390 nM | > 10000 nM | 7510 nM |  |  | CCCCCCC[C@@H]1[C@@H](CCCc2ccc(C(=O)O)s2)[C@H](Cl)C[C@H]1O [Entry 3, 5-[3-((1R,2R,3R,5R)-5-Chloro-2-heptyl-3-hydroxy-cyclopentyl)-propyl]-thiophene-2-carboxylic acid] |  |  |  |  |
| 395 nM | 11 nM | 0.4 nM | 9530 nM | 0.5 nM |  |  | 6770 nM | 18200 nM |  | 11400 nM | 1.3 |  | CCCCCCCC[C@@H]1[C@@H](CCCc2ccc(C(=O)O)s2)[C@H](Cl)C[C@H]1O [Entry 4, 5-[3-((1R,2R,3R,5R)-5-Chloro-3-hydroxy-2-octyl-cyclopentyl)-propyl]-thiophene-2-carboxylic acid] | 40% | 31% |  |  |
|  |  |  |  |  |  |  |  |  |  |  |  | 2.4 | CCCCCCCC[C@@H]1[C@@H](CCSc2nc(C(=O)O)cs2)[C@H](Cl)C[C@H]1O [Entry 6-8, 2-(2-((1R,2R,3R,5R)-5-chloro-3-hydroxy-2-octylcyclopentyl)ethylthio)thiazole-4-carboxylic acid] |  |  | 44% | 56% |
| 351 nM | 7 nM | 0.2 nM | 4990 nM | 3 nM | 10300 nM | 7570 nM | 3210 nM | 883 nM |  | 6470 nM |  |  | C=CCCCCCC[C@@H]1[C@@H](CCCc2ccc(C(=O)O)s2)[C@H](Cl)C[C@H]1O [Entry 12, 5-[3-((1R,2R,3R,5R)-5-Chloro-3-hydroxy-2-oct-7-enyl-cyclopentyl)-propyl]-thiophene-2-carboxylic acid] |  |  |  |  |
